Article PMC7575488, “Phase 1 dose-escalation study of a novel oral PI3K/mTOR dual inhibitor, LY3023414, in patients with cancer” (Investigational New Drugs, 2020)
Where two headings read alike, the source gives them in different places. Marks after values point to notes of the source that are not given here.

How the values were obtained:
[1] = system: PI3K/AKT/mTOR downstream pathway; set-up: method as in PMID 27439478; conditions: in vitro; cited from earlier work
[2] = system: CYP3A4; set-up: method as in PMID 29636360; conditions: drug-drug interaction analysis; cited from earlier work
[3] = system: advanced malignancies; experiment: Antitumor activity, tumor response by RECIST v1.1; type: in vivo, human
Method: Tumor response was assessed by computed tomography scans or magnetic resonance imaging according to RECIST v1.1 [18] at baseline and thereafter every 6 weeks until patients discontinued from the study. The assessment included all patients who received ≥1 dose of study drug.

[4] = set-up: method as in PMID 29636360; conditions: across a wide pH range; cited from earlier work
[5] = system: tumor xenograft models; conditions: cited from earlier work
[6] = system: PI3K/mTOR kinase activity; experiment: Pharmacodynamics: fasting glucose and C-peptide change from baseline; type: in vivo, human; conditions: baseline to 4 h post dose
Method: The primary objective of this study was to evaluate the tolerability and safety of LY3023414 up to the global recommended dose in Japanese patients with advanced malignancies. The secondary objectives were to evaluate PK and to document antitumor activity of LY3023414. The exploratory objective was to evaluate pharmacodynamic (PD) effects of LY3023414 on PI3K/mTOR kinase activity.
(§1) For PK assessment, blood samples were collected at pre dose and 0.5, 1, 2, 4, 8, and 12 h post dose on 2 occasions: (i) on Day 1 of Cycle 1 (single dose), and (ii) on Day 15 of Cycle 1 (multiple dose). For PD assessment, blood samples were collected at pre dose and 0.5, 1, 2, and 4 h post dose on 2 occasions: (i) on Day 1 of Cycle 1 (single dose), and (ii) on Day 15 of Cycle 1 (multiple dose).
Pharmacodynamic parameters (glucose and C-peptide) were analyzed for all patients. The mean percentage change from baseline against nominal time was provided for glucose and C-peptide.

[7] = system: PI3K/mTOR; set-up: method as in PMID 29636360; conditions: at doses ≥150 mg; cited from earlier work
[8] = cited from earlier work
[9] = Blood pharmacokinetics (dried blood spot LC-MS/MS, non-compartmental analysis); type: in vivo, human; conditions: for CL/F: based on AUC0-∞; for CL/F (CLss/F): Cycle 1 Day 15 (multiple dose, steady state); for Tmax / half-life / Vd/F / AUC(0-inf) / Cmax / AUC(0-t): human, oral; for Vd/F: read-out: Vz/F; for AUC(0-t): tlast 12 h (AUCτ), read-out: AUC0-tlast
Method: as §1
Blood concentrations of LY3023414 were assayed using a validated dried blood spot liquid chromatography-mass spectrometry/mass spectrometry method at a designated laboratory. The PK parameter estimates for LY3023414 were calculated by standard non-compartmental methods of analysis using Phoenix WinNonlin® 8.0 (Certara, L.P.; Princeton, NJ, USA). The primary parameters for analysis were maximum observed blood concentration (Cmax), time of Cmax (tmax), area under the blood concentration-time curve from time zero to the last measurable blood concentration (AUC0-tlast), and area under the blood concentration-time curve from time zero to infinity (AUC0-∞) of LY3023414. Other non-compartmental parameters, such as half-life (t1/2), apparent total body clearance (CL/F) on Cycle 1 Day 1, apparent total body clearance at steady state (CLss/F) on Cycle 1 Day 15, and apparent volume of distribution during the terminal phase (Vz/F), were also assessed.

[10] = whole blood, 150 mg, 150 mg BID, Cycle 1 Day 1 (single dose), blood, N = 3, geometric mean (% CV)
[11] = whole blood, 150 mg, 150 mg BID, Cycle 1 Day 15 (multiple dose), blood, N = 3, geometric mean (% CV)
[12] = whole blood, 200 mg, 200 mg BID, Cycle 1 Day 1 (single dose), blood, N = 9, geometric mean (% CV)
[13] = whole blood, 200 mg, 200 mg BID, Cycle 1 Day 15 (multiple dose), blood, N = 7, geometric mean (% CV)

For `CO[C@@H](C)Cn1c(=O)n(C)c2cnc3ccc(-c4cncc(C(C)(C)O)c4)cc3c21` [LY3023414], the “Inhibition of phosphorylation of the PI3K/AKT/mTOR downstream pathway” value [1] is given as “dose-dependent inhibition”, the “Inhibition of the metabolic clearance of drugs metabolized through CYP3A4” value [2] is given as “weak inhibitor” and the “Best overall response of stable disease” value ([3]; 150 mg) is given as 3 patients. The “Best overall response of stable disease” value ([3]; 200 mg) was 2 patients, the “Progressive disease as best response” value ([3]; 200 mg BID) was 4 patients and the Disease control rate ([3]; 5 of 9 evaluable patients) was 55.6%. For the same compound, the “Complete response (CR) or partial response (PR)” value ([3]; 9 evaluable patients, RECIST v1.1) was “No complete response (CR) or partial response (PR)”, the “Best overall response of stable disease” value ([3]; both dose levels, 9 evaluable patients) was 5 patients and the Solubility [4] was “good solubility”. The Antitumor activity [5] was “potent antitumor activity”, the “C-peptide, mean percentage change from baseline” value ([6]; 150 mg) was 106.0% and the “Glucose, mean percentage change from baseline” value ([6]; 150 mg) was 23.6%. The “C-peptide, mean percentage change from baseline” value ([6]; 200 mg) was 165.4%, the “Glucose, mean percentage change from baseline” value ([6]; 200 mg) was 24.7% and the Target inhibition [7] was at least 90%. For the same compound, the Frequency of stomatitis ([8]; 200-mg dose, global study) was 33.3%, the Disease control rate ([8]; global Phase 1 study) was 34.0% and the “Interstitial lung disease (ILD)” value ([8]; global study) was “None of the patients experienced ILD”. For the same compound, the “Safe and tolerable dose as monotherapy (global recommended dose)” value ([8]; human, in vivo) was “up to 200 mg”, the CL/F ([9]; 150 mg BID, Cycle 1 Day 1 (single dose), N = 3, geometric mean (% CV)) was 49.2 (19) L/hr and the “CL/F (CLss/F)” value ([9]; 150 mg BID, N = 3, geometric mean (% CV)) was 30.4 (45) L/hr. For the same compound, the CL/F ([9]; 200 mg BID, Cycle 1 Day 1 (single dose), N = 8, geometric mean (% CV 29)) was 48.5^c (29) L/hr, the “CL/F (CLss/F)” value ([9]; 200 mg BID, N = 7, geometric mean (% CV)) was 48.6 (33) L/hr and the Tmax ([9]; whole blood (dried blood spot), 200 mg, post administration, each dose level (150 and 200 mg), read-out: median tmax) was 1 to 3 h. The half-life ([9]; whole blood (dried blood spot), Days 1 and 15 in Cycle 1, each dose level, read-out: geometric mean t1/2 (converted)) was about 2 h, the Vd/F ([9]; whole blood, 150 mg, 150 mg BID, Cycle 1 Day 1 (single dose), N = 3, geometric mean (% CV)) was 113 L and the AUC(0-inf) [9, 10] was 3050 ng·h/mL. The Cmax [9, 10] was 792 ng/mL, the half-life ([9]; whole blood, 150 mg, 150 mg BID, Cycle 1 Day 1 (single dose), blood, N = 3, geometric mean (range), read-out: t1/2 (converted)) was 1.59 h and the Tmax ([9]; whole blood, 150 mg, 150 mg BID, Cycle 1 Day 1 (single dose), blood, N = 3, median (range), read-out: tmax) was 2.93 h. The AUC(0-t) [9, 10] was 3000 ng·h/mL, the Vd/F ([9]; whole blood, 150 mg, 150 mg BID, Cycle 1 Day 15 (multiple dose), N = 3, geometric mean (% CV)) was 79.3 L and the AUC(0-inf) [9, 11] was 5010 ng·h/mL. For the same compound, the Cmax [9, 11] was 1570 ng/mL, the half-life ([9]; whole blood, 150 mg, 150 mg BID, Cycle 1 Day 15 (multiple dose), blood, N = 3, geometric mean (range), read-out: t1/2 (converted)) was 1.81 h and the Tmax ([9]; whole blood, 150 mg, 150 mg BID, Cycle 1 Day 15 (multiple dose), blood, N = 3, median (range), read-out: tmax) was 1 h. For the same compound, the AUC(0-t) [9, 11] was 4920 ng·h/mL, the Vd/F ([9]; whole blood, 200 mg, 200 mg BID, Cycle 1 Day 1 (single dose), N = 8, geometric mean (% CV 35)) was 136 L and the AUC(0-inf) ([9]; whole blood, 200 mg, 200 mg BID, Cycle 1 Day 1 (single dose), blood, N = 8, geometric mean (% CV 29)) was 4120 ng·h/mL. For the same compound, the half-life ([9]; whole blood, 200 mg, 200 mg BID, Cycle 1 Day 1 (single dose), blood, N = 8, geometric mean (range 1.52–3.15), read-out: t1/2 (converted)) was 1.94 h, the Cmax [9, 12] was 1020 ng/mL and the Tmax ([9]; whole blood, 200 mg, 200 mg BID, Cycle 1 Day 1 (single dose), blood, N = 9, median (range), read-out: tmax) was 1.95 h. For the same compound, the AUC(0-t) [9, 12] was 4140 ng·h/mL, the Vd/F ([9]; whole blood, 200 mg, 200 mg BID, Cycle 1 Day 15 (multiple dose), N = 7, geometric mean (% CV)) was 129 L and the AUC(0-inf) [9, 13] was 4210 ng·h/mL. For the same compound, the Cmax [9, 13] was 1010 ng/mL, the half-life ([9]; whole blood, 200 mg, 200 mg BID, Cycle 1 Day 15 (multiple dose), blood, N = 7, geometric mean (range), read-out: t1/2 (converted)) was 1.83 h and the Tmax ([9]; whole blood, 200 mg, 200 mg BID, Cycle 1 Day 15 (multiple dose), blood, N = 7, median (range), read-out: tmax) was 1.97 h. It also gave an AUC(0-t) [9, 13] of 4100 ng·h/mL.
